Data taken from patent publication US9101567B2, “Suppression of cancer growth and metastasis using nordihydroguaiaretic acid derivatives with 7-hydroxystaurosporine” (The Johns Hopkins University, priority 2010, dated 2015).
“And” between values parts separate entries of the source, which are not always exact repeats. Equal values may be shown once.

How the values were obtained:
[1] = Body weight change in OC24 tumor-bearing mice; assay type: in vivo, nude mice (nu/nu); details: individual mice
Method: (§1) T-cell deficient male nude mice (nu/nu) were obtained from Charles River Laboratories (Wilmington, Mass.). […] For drug combinations (M4N/etoposide, M4N/rapamycin, and M4N/UCN-01), etoposide, rapamycin, or UCN-01 powder was further added to M4N in CPE 25/30 to make a final concentration of M4N (10 mg/ml) respectively with etoposide (4 mg/ml), rapamycin (3.75 mg/ml), or UCN-01 ([…]) in CPE 25/30 formulation. These drugs were intravenously injected into the tail vein of mice at the daily dose of 0.1 ml per mouse. Therefore dosages of each injection were 1 mg/shot (for M4N), 0.4 mg/shot (for etoposide), 0.375 mg/shot (for rapamycin), and 88.4 μg/shot (for UCN-01). The drug injections were performed once every day; beginning at day 3 until day 31 after tumor inoculation for the combination treatment with either etoposide or rapamycin and until day 25 after tumor inoculation for the combination treatment with UCN-01. After this the drugs were injected once a week for etoposide/rapamycin combination treatment and once every three days until day 35 for UCN-01 combination treatment. Protocols used in this study were approved by the Institutional Animal Care and Use Committee at the Johns Hopkins University, Department of Biology.
(§2) OC24 cells growing subconfluently were collected into the tissue culture medium without fetal bovine serum and antibiotics. The cell concentration was adjusted by the same medium. The cell solution containing 5×10^4 cells was injected into the peritoneal cavity of each nude mouse at the day 0. The drug treatment started from day 3. For the estimation of the effect of the drug treatment, the volume of ascites fluids and of abdominal tumors was measured.
Once the ascites fluid starts to accumulate in the peritoneal cavity, it sometimes constitutes a significant portion of the body weight.
The increase of the body weight of deceased mice at the time of the death over the initial weight was 37.8% (SD=18.9%, N=19) while the increase of the body weight of alive mice at days after tumor inoculation over the initial weight was 9.5% (SD=7.5%, N=6). The difference of two groups is statistically significant by t-test (0.2%). […] Therefore the body weight change can be used as an indicator to estimate the volume of ascites and thus overall condition of the mice. […] The body weight increased slightly after day 26. However it hasn't reached the peak weight achieved at day 22 (30.5 g). […] The pictures show the apparent decrease of the volume of abdominal area from day 22 to day 29 through day 26. This almost certainly indicated the reduction of ascites fluid. […] The observations depicted in FIGS. 8 B and 8C indicate that the combination treatment of M4N with UCN-01 can suppress tumor burden even after the tumor size has already reached to a certain extent. Discussion

[2] = test system: OC24 human ovarian cancer cells; assay: OC24 ovarian cancer-bearing nude mice: survival, ascites fluid, abdominal tumors; assay type: in vivo, nude mice (nu/nu); details: for survival rate at 45 days after treatment: OC24 tumor-bearing nude mice, i.v. 1 mg M4N and/or 88.4 μg UCN-01 per shot; for Tumor Weight: abdominal tumors of individual OC24 tumor-bearing mice; for Tumor Weight / Weight of the Ascites Fluid: at the time of death; for Weight of the Ascites Fluid: individual OC24 tumor-bearing mice, data compiled at 45 days after tumor inoculation
Method: as §1, §2
Next we examined if this combination treatment could improve the anticancer efficacy of M4N in animal experiments. In this experiment we used OC24 ovarian cancer-bearing nude mice as a model system. OC24 cells are very aggressive cancers and have the ability to kill essentially all the mice when only ten thousand cancer cells are inoculated intraperitoneally into a mouse. […] All the mice without any treatments died in less than 26 days after the tumor inoculation. Meanwhile certain percentages of the mice survived in the all treatment groups (M4N alone, UCN-01 alone, or M4N/UCN-01 combination) beyond 45 days after treatment (the time of preparation of the current manuscript). The survival rate at 45 days after treatment was 33%, 20%, and 42% for M4N alone, UCN-01 alone, or M4N/UCN-01 combination group respectively.
To further evaluate the anticancer efficacy of M4N/UCN-01 combination treatment, we next measured the volume of the ascites fluid and that of abdominal tumors. The ascites fluid was collected from the peritoneal cavity at the time of death of tumor-bearing mice. Abdominal tumors are usually located in the vicinity of the area where the tumors were inoculated by the needle. […] The data was compiled at 45 days after tumor inoculation. Therefore there were still several mice who still survived from tumor burden.

[3] = test system: caspase-3 and 9; assay: Western blotting of cleaved caspase-3 and 9 in LNCaP cells; assay type: cell-based, human; details: 17 hrs, M4N 80 μM, etoposide 10 μM, rapamycin 10 μM, UCN-01 2 μM
Method: (§3) The sample volumes were adjusted by the total protein amount. Protein assay was performed by Bio-Rad Protein Assay (Bio-Rad Laboratories, Inc. Hercules, Calif.). The samples were resolved by the standard SDS-polyacrylamide gel electrophoresis and transferred to nitrocellulose membrane (Amersham Biosciences, Bjorkgatan, Sweden). The membranes were blocked with skim milk, and incubated with primary antibodies at 4° C. overnight and then with secondary antibody conjugated with horse radish peroxidase at room temperature for 2 hrs. The signals were detected by western blot chemiluminescence reagent plus (New England Nuclear Life Science Products, Boston, Mass.).
(§4) The efficacy of the combination treatment of M4N with three anticancer drugs, etoposide, rapamycin, and UCN-01 to induce cell death was examined for LNCaP human prostate cancer cells with TUNEL assay. We chose these anticancer drugs trying to diversify the mechanisms in which the anticancer drugs work (43-45). […] Additionally the effect of caspase-3 and 7 inhibitor, zDEVD-fmk on the cell death induced by the combination treatment was examined (FIG. 1E).

[4] = test system: caspase-7; assay: Western blotting of caspase-7 cleavage in LNCaP cells; assay type: cell-based, human; details: 17 hrs, M4N 80 μM, etoposide 10 μM, rapamycin 10 μM, UCN-01 2 μM
Method: as §3, §4

[5] = test system: caspase-7; assay: Enzymatic assay for caspase-7 in extracts of treated LNCaP cells; assay type: cell-based, human; details: extracts of LNCaP cells treated for 13 hrs
Method: The enzymatic assay specific for caspase-7 was performed using a CaspSELECT caspase-7 immunoassay kit (BioVision, Mountain View, Calif.). This assay is based on the […] assay with DEVD-afc. Since DEVD-afc can be a substrate for either caspase-3 or 7, only caspase-7 is selected from cell extracts by anti-caspase-7 antibody which is coated on microtiter plates. Briefly the microtiter plates were coated with anti-caspase-7 antibody overnight at 4 C and blocked with a blocking solution for 30 minutes at room temperature. The cell extracts were applied to the microtiter plates. After washing the microtiter plates, the substrate […] was added to the plates and incubated for about three hours. The fluorescence was measured by a microtiter plate fluorescence reader Infinite 200 (Tecan, Switzerland).
as §4

SMILES | Body weight ([1]; Day No. 0 (10-Dec)) | Body weight ([1]; Day No. 2 (12-Dec)) | Body weight ([1]; Day No. 3 (13-Dec)) | Body weight ([1]; Day No. 8 (18-Dec)) | Body weight ([1]; Day No. 12 (22-Dec)) | Body weight ([1]; Day No. 22 (1-Jan)) | Body weight ([1]; Day No. 26 (5-Jan)) | Body weight ([1]; Day No. 29 (8-Jan)) | Body weight ([1]; Day No. 32 (11-Jan)) | Body weight ([1]; Day No. 33 (12-Jan)) | Body weight ([1]; Day No. 34 (13-Jan)) | Body weight ([1]; Day No. 35 (14-Jan)) | Body weight ([1]; Day No. 36 (15-Jan)) | Body weight ([1]; Day No. 37 (16-Jan)) | Body weight ([1]; Day No. 38 (17-Jan)) | Body weight ([1]; Day No. 39 (18-Jan)) | Body weight ([1]; Day No. 40 (19-Jan)) | Body weight ([1]; Day No. 41 (20-Jan)) | Body weight ([1]; Day No. 42 (21-Jan)) | survival rate at 45 days after treatment [2] [%] | also measured
CN[C@@H]1C[C@H]2O[C@@](C)([C@@H]1OC)n1c3ccccc3c3c4c(c5c6ccccc6n2c5c31)C(=O)N[C@H]4O [UCN-01, 7-hydroxystaurosporine] | 22.8 grams and 22.1 grams and 23.4 grams and 21.6 grams and 19.6 grams and 20.6 grams | 22.6 grams (2×) and 18.3 grams and 20.8 grams | 23.4 grams and 21.8 grams and 35.7 grams and 30.5 grams and 22.9 grams and 21.9 Died due to injection & not the tumor (28th Dec) grams | 39.5 grams and 35.9 grams and 26.2 grams | 24.4 grams and 30.7 grams and 38.4 (6th Jan) grams and 27.3 grams | 24.8 grams and 29.5 grams | 25.5 grams | 27.9 grams | 27.6 grams | 27.4 grams | 27.5 grams | 26.5 grams | 27.2 grams | 27.3 grams | 27.1 grams | 27.4 grams | 27.4 grams | 27.8 grams | 26.7 grams | 20 | Body weight ([1]; column head Day No. 18 (28-Dec)): 22.5 grams; Tumor Weight [2]: No Tumor (2×) and 360.5 mg and 87 mg; Weight of the Ascites Fluid [2]: 7.4 g and 15 g and Living and 14.3 g and 2.9 g; expression of cleaved caspase-3 and 9 [3]: great expression; caspase-7 cleavage products (20 and 34 kDa) [4]: great amount; caspase-7 activation (enzymatic activity) [5]: to some extent
COc1ccc(C[C@@H](C)[C@@H](C)Cc2ccc(OC)c(OC)c2)cc1OC [M4N, Tetra-O-methyl nordihyroguaiaretic acid] | 24.1 grams and 22.9 grams and 23.5 grams and 22.3 grams and 20 grams and 21.4 grams | 22.3 grams and 20.8 grams and 22.9 grams and 21.5 grams and 19.1 grams and 20.9 grams | 22.8 grams and 21.2 grams and 23.4 grams and 20.9 grams and 20.2 grams and 20.5 grams | 30.1 grams and 25.8 (31st Dec) grams | 23.9 grams and 21.9 grams and 27.7 grams (2×) and 29.8 (Euthanized on 1st Jan) grams | 23.2 grams and 21.5 grams and 28 grams and 38.8 grams | 24.1 grams and 22.5 grams and 28.1 grams | 26.2 grams and 22.7 grams | 25.5 grams and 22.5 grams | 25.3 grams and 23.1 grams | 25.3 grams and 22.9 grams | 24.8 grams and 22 grams | 25.7 grams and 22.4 grams | 25.8 grams and 22.6 grams | 25.9 grams and 22.9 grams | 26.3 grams and 22.7 grams | 26.4 grams and 22.9 grams | 26.4 grams and 23.1 grams | 25.3 grams and 23.2 grams | 33 | Body weight ([1]; column head Day No. 25 (4-Jan)): 37.5 grams; Body weight ([1]; column head Day No. 28 (7-Jan)): 27.9 grams; Tumor Weight [2]: 101.3 mg and <100 mg and 360.5 mg and 69 mg; Weight of the Ascites Fluid [2]: 4.4 g and Living (2×) and 7.8 g and 5.8 g and 16.1 g; expression of cleaved caspase-3 and 9 [3]: didn't induce the cleavage; caspase-7 cleavage products (20 and 34 kDa) [4]: small amount; caspase-7 activation (enzymatic activity) [5]: only a small amount
